Test results reported in paper PMC4604048 (The Pediatric infectious disease journal, 2015).

What was measured:
[1] = system: HIV; conditions: week 48; cited from earlier work
[2] = in vivo; cited from earlier work
[3] = Safety and adverse events through Week 48
[4] = system: virus with R263K mutation at virologic failure; conditions: adult study where R263K mutation was seen; cited from earlier work
[5] = Intensive steady-state plasma pharmacokinetics of dolutegravir, Stage I; assay type: in vivo, human (HIV-1 infected treatment-experienced adolescents); conditions: Stage I N=10, ~1 mg/kg once daily; for AUC(0-t) / concentration at 24 h / Cmax / half-life: human, plasma, oral, 1 mg/kg
[6] = system: CD4 cell count; experiment: Change from baseline in CD4 cell count and percentage at Week 48; assay type: in vivo, human (HIV-1 infected treatment-experienced adolescents); conditions: Week 48, dolutegravir plus OBR
[7] = system: HIV-1; experiment: Virologic efficacy: plasma HIV-1 RNA through Week 48; assay type: in vivo, human (HIV-1 infected treatment-experienced adolescents); conditions: Week 48, N=23, dolutegravir plus OBR
[8] = Grade 1 or 2 transient clinical events, N=23, not considered related to dolutegravir

## Cc1nnc(C(=O)NC(C)(C)c2nc(C(=O)NCc3ccc(F)cc3)c(O)c(=O)n2C)o1 [raltegravir]
[1]
  virologic efficacy of the adolescent cohort: 57%

## CCC[C@@]1(CCc2ccccc2)CC(O)=C([C@H](CC)c2cccc(NS(=O)(=O)c3ccc(C(F)(F)F)cn3)c2)C(=O)O1 [tipranavir]
[2]
  children reporting serious adverse events: 25%
  treatment discontinuation due to serious adverse events: 8%

## C[C@@H]1CCO[C@H]2Cn3cc(C(=O)NCc4ccc(F)cc4F)c(=O)c(O)c3C(=O)N12 [Dolutegravir]
[3]; [8]
  abdominal pain, subjects: 21%
  arthralgia, subjects: 13%
  back pain, subjects: 13%
  decrease appetite, subjects: 30%
  diarrhea, subjects: 35%
  dizziness, subjects: 17%
  extremity pain, subjects: 26%
  fever, subjects: 30%
  headache, subjects: 26%
  lymphadenopathy, subjects: 26%
  nasal congestion, subjects: 30%
  nausea, subjects: 13%
  pharyngeal pain, subjects: 35%
  sinus congestion, subjects: 17%
[3]; through Week 48
  Grade 4 AEs, SAEs or discontinuations due to AEs: no Grade 4 AEs, SAEs or discontinuations due to AEs
[3]; through Week 48, dolutegravir plus OBR
  tolerability: well tolerated
[4]
  dolutegravir FC values at virologic failure: < 2 fold
[5]
  C24, GM (geometric mean): 0.90 µg/mL
  CL/F, GM: 78.03 L/h
  CL/F, Mean (SD): 1.25 (±0.97) L/hr
  CL/F, Median (min, max): 0.87 (0.59, 3.83) L/hr
  Tmax, Median (min, max): 3.00 (1.00, 6.00) hr
[5]; AUC0–24, GM, Table 2
  AUC(0-t): 43100 ng·h/mL
[5]; AUC0–24, Mean (SD)
  AUC(0-t): 51600 ng·h/mL
[5]; AUC0–24, Median (min, max)
  AUC(0-t): 52900 ng·h/mL
[5]; C24, GM (geometric mean)
  concentration at 24 h: 900 ng/mL
[5]; C24, Mean (SD)
  concentration at 24 h: 1090 ng/mL
[5]; C24, Median (min, max)
  concentration at 24 h: 1140 ng/mL
[5]; Mean (SD)
  Cmax: 3820 ng/mL
[5]; Median (min, max)
  Cmax: 4010 ng/mL
[5]; T1/2, GM
  half-life: 11.9 h
[5]; T1/2, Median (min, max)
  half-life: 10.4 h
[6]
  Median (IQR) gain in CD4 cell count: 84 cells/µL
[7]
  Virologic success: proportion with HIV RNA < 400 copies/mL: 74%
  proportion with HIV RNA < 50 copies/mL: 61%
